Test results from ChEMBL document CHEMBL4665643 (Bioorg Med Chem Lett, 2019).

How the values were obtained:
[1] = biological target: Serine/threonine-protein kinase B-raf (Homo sapiens) (UniProt P15056); assay: Inhibition of recombinant human GST-tagged full length BRAF expressed in baculovirus expression system using Ser/Thr 03 as substrate at 0.1 uM incubated for 60 mins by Z'-Lyte assay relative to control
[2] = biological target: T1, cGMP-dependent protein kinase 2 (Homo sapiens) (UniProt Q13237); assay: Inhibition of recombinant human GST-tagged full length PKG2 expressed in baculovirus expression system using Ser/Thr 01 as substrate at 0.1 uM incubated for 60 mins by Z'-Lyte assay relative to control
T1 sequence (whole entry): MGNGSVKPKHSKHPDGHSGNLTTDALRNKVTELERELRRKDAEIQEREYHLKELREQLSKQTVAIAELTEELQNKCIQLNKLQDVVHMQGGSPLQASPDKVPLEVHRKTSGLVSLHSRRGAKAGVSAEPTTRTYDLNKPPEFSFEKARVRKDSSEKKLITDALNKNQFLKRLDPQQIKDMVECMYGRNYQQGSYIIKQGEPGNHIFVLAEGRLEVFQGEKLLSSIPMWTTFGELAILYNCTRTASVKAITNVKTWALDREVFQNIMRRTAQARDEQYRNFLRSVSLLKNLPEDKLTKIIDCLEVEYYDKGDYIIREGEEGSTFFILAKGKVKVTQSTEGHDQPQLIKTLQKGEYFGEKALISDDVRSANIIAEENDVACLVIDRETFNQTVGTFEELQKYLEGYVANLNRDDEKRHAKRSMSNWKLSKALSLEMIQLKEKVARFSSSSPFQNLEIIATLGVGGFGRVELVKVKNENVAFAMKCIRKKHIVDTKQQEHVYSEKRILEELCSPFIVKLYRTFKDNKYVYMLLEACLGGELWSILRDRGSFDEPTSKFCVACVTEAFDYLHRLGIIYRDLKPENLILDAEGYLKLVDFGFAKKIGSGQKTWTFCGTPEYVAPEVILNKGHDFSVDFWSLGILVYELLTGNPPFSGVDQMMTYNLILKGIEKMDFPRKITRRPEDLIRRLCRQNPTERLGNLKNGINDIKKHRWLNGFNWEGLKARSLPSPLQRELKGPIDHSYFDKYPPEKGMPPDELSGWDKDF

[3] = biological target: Death-associated protein kinase 1 (Homo sapiens) (UniProt P53355); assay: Inhibition of recombinant human N-terminal GST-tagged DAPK1 (1 to 363 residues) expressed in baculovirus expression system using ZIPtide as substrate at 0.1 uM incubated for 60 mins by Adapta assay relative to control
[4] = biological target: T2, Mitogen-activated protein kinase 12 (Homo sapiens) (UniProt P53778); assay: Inhibition of recombinant human His-tagged full length p38 gamma expressed in baculovirus expression system using Ser/Thr 03 as substrate at 0.1 uM incubated for 60 mins by Z'-Lyte assay relative to control
T2 sequence (whole entry): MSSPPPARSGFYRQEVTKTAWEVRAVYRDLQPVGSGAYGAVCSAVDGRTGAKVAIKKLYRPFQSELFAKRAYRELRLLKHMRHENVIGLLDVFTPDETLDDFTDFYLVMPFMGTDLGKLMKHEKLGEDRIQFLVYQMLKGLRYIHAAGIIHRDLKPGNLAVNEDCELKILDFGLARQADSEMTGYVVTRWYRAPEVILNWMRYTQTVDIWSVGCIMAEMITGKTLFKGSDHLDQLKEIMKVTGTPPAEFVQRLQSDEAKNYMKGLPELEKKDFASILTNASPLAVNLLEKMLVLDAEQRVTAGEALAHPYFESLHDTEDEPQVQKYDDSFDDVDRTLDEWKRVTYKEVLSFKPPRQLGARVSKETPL

[5] = biological target: T3, Ephrin type-B receptor 2 (Homo sapiens) (UniProt P29323); assay: Inhibition of recombinant human GST-tagged EPHB2 (616 to 884 residues) expressed in baculovirus expression system using Tyr 02 as substrate at 0.1 uM incubated for 60 mins by Z'-Lyte assay relative to control
T3 sequence (whole entry): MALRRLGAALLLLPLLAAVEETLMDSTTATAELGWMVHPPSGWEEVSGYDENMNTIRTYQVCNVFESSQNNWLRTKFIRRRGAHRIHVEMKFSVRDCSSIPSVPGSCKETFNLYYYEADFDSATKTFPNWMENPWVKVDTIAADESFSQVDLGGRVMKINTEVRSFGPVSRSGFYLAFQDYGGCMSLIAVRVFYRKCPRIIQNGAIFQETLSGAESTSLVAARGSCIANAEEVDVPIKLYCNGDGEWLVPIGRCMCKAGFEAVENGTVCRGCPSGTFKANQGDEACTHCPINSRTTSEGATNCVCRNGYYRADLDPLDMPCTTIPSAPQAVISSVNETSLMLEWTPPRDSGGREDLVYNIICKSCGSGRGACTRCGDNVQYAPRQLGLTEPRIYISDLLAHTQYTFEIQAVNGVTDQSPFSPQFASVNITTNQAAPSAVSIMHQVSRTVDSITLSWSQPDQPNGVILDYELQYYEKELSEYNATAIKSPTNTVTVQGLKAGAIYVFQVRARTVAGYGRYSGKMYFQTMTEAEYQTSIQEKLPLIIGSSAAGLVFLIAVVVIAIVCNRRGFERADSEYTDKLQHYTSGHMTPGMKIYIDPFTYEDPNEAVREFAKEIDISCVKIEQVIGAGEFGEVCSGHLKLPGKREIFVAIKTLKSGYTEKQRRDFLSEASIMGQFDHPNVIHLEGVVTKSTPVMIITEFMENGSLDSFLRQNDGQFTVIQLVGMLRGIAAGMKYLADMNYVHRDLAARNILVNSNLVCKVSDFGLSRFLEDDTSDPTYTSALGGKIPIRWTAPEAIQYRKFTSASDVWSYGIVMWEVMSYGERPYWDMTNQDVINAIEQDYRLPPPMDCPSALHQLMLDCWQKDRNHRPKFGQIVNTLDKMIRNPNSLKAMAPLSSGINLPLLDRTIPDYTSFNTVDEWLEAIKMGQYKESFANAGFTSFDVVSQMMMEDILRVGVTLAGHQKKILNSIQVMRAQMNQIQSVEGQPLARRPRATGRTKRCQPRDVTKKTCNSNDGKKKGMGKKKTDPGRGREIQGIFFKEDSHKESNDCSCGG

[6] = system: RAF proto-oncogene serine/threonine-protein kinase (Homo sapiens), P04049 [Y340D,Y341D]; assay: Inhibition of recombinant human GST-tagged RAF1 Y340D/Y341D double mutant (306 to 648 residues) expressed in baculovirus expression system using Ser/Thr 03 as substrate at 0.1 uM incubated for 60 mins by Z'-Lyte assay relative to control
[7] = biological target: Protein kinase C beta type (Homo sapiens) (UniProt P05771); assay: Inhibition of recombinant human His-tagged full length PKCbeta1 expressed in insect expression system using Ser/Thr 07 as substrate at 0.1 uM incubated for 60 mins by Z'-lyte assay relative to control
[8] = biological target: Mitogen-activated protein kinase 9 (Homo sapiens) (UniProt P45984); assay: Inhibition of recombinant human His-tagged full length JNK2 expressed in baculovirus expression system using Ser/Thr 04 as substrate at 0.1 uM incubated for 60 mins by Z'-lyte assay relative to control
in vitro = conditions: dog, MDCK
Description: Apparent permeability across apical to basolateral side in MDCK cells at 10 uM incubated upto 180 mins by LC/MS-MS analysis

Chain of RAF proto-oncogene serine/threonine-protein kinase (Homo sapiens), P04049 [Y340D,Y341D] (P04049 whole entry Y340D/Y341D, the tested form may be a part): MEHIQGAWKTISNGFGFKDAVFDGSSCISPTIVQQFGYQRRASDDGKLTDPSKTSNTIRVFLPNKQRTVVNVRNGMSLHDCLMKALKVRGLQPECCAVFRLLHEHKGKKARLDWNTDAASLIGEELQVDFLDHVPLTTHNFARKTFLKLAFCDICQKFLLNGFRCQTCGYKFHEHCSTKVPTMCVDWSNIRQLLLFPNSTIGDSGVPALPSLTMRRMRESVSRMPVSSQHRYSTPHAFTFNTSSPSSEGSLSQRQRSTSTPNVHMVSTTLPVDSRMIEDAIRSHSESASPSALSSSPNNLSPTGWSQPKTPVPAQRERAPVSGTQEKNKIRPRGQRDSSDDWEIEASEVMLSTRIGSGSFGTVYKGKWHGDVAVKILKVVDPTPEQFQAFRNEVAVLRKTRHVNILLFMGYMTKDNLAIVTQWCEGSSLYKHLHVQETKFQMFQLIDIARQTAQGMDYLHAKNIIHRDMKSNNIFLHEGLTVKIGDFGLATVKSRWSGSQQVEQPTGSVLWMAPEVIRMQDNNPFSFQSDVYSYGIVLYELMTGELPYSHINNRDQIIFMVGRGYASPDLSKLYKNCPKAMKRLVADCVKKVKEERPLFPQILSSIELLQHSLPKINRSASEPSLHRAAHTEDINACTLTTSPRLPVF
Chain of Protein kinase C beta type (Homo sapiens) (P05771 2-671 limits assumed): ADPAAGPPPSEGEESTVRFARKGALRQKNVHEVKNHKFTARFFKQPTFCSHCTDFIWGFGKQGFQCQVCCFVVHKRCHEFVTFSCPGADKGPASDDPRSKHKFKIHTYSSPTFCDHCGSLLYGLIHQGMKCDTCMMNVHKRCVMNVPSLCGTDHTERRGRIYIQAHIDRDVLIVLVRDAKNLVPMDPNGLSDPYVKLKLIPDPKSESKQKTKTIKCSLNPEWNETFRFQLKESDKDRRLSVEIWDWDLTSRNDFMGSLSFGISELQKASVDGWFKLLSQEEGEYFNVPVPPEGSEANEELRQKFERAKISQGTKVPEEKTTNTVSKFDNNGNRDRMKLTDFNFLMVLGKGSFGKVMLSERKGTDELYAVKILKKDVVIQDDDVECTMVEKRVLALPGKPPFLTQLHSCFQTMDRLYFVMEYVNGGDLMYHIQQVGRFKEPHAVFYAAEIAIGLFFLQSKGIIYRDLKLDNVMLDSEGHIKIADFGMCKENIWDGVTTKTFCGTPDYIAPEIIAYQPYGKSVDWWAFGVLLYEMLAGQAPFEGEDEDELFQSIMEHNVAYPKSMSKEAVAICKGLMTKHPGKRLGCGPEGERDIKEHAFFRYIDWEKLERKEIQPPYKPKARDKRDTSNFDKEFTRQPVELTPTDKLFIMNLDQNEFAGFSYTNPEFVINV
Chain of Death-associated protein kinase 1 (Homo sapiens) (P53355 whole entry, looked up, the tested form may be a part): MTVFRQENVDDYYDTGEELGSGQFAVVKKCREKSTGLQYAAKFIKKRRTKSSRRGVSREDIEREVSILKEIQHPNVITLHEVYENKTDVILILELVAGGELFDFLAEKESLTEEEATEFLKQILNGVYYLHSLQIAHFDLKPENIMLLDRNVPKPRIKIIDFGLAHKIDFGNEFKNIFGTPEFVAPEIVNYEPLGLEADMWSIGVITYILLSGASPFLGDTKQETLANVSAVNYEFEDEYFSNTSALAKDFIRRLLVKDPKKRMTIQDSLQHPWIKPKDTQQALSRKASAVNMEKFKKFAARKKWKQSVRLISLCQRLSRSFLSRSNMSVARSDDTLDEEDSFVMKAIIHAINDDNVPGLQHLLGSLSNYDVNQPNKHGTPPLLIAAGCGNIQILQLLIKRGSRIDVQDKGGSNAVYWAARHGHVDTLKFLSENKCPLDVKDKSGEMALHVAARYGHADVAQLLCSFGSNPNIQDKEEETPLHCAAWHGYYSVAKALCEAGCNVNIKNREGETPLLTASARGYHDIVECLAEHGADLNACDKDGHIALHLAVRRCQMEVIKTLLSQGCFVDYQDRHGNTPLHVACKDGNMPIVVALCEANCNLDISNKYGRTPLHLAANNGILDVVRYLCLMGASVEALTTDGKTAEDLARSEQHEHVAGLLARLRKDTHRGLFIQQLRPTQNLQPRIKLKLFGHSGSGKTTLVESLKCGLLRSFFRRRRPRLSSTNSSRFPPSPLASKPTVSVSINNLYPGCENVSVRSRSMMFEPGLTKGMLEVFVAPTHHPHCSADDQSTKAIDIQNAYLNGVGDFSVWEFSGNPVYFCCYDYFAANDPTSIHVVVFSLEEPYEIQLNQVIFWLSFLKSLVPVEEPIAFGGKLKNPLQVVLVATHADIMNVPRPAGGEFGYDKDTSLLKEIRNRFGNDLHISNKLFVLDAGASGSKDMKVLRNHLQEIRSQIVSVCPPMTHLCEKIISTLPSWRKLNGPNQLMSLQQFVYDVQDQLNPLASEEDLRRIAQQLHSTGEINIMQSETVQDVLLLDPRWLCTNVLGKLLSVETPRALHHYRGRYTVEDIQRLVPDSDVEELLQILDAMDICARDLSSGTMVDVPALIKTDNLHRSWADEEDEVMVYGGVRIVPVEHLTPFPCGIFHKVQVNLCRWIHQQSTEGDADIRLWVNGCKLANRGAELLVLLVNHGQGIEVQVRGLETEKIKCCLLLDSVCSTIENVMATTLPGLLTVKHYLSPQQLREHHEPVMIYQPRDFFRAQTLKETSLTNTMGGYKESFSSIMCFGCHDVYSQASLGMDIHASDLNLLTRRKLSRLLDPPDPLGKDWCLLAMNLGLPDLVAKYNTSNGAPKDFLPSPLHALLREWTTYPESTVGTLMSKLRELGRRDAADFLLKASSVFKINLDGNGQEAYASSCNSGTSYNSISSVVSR
Chain of Serine/threonine-protein kinase B-raf (Homo sapiens) (P15056 whole entry): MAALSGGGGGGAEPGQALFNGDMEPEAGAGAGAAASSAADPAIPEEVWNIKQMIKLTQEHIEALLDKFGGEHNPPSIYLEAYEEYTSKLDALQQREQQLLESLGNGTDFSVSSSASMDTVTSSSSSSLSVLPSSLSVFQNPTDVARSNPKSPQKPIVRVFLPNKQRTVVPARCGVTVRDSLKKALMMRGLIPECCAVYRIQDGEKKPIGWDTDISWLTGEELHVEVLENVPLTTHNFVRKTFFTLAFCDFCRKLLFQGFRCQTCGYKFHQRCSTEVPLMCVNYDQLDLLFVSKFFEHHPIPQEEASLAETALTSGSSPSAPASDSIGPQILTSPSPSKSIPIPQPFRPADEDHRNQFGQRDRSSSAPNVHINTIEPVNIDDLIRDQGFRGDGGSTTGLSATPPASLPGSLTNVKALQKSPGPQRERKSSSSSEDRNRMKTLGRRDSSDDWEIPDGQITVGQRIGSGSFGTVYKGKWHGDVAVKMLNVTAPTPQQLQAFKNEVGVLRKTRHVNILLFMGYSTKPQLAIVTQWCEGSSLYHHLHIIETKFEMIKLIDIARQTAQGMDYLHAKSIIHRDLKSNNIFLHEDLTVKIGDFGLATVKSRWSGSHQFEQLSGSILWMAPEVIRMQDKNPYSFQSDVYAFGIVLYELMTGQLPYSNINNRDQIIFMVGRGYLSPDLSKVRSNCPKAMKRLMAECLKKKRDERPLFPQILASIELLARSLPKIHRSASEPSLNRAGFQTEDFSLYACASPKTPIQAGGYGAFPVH
Chain of Mitogen-activated protein kinase 9 (Homo sapiens) (P45984 whole entry, looked up): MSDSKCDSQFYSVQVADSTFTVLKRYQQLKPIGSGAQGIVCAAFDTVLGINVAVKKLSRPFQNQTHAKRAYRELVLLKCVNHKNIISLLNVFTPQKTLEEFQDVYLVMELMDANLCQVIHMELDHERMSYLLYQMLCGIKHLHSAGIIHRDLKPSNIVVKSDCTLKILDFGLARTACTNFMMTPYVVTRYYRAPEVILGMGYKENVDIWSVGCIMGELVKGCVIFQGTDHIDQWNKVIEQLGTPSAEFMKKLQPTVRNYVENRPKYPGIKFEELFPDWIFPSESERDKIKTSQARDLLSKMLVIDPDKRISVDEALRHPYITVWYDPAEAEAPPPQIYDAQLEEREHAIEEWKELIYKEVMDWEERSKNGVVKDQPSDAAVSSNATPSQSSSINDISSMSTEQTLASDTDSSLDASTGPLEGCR

SMILES	inhibition [1] [%]	inhibition [2] [%]	inhibition [3] [%]	inhibition [4] [%]	inhibition [5] [%]	inhibition [6] [%]	inhibition [7] [%]	inhibition [8] [%]	Papp A→B at 3 h, 10 µM (in vitro) [×10⁻⁶ cm/s]
O=C(Nc1c[nH]nc1-c1cc(Cl)ccc1OC(F)F)c1cnn2cccnc12	1	2	19	-1	10	9	24	16	14
O=C(Nc1c[nH]nc1-c1cc2ccccc2cc1OC(F)F)c1cnn2cccnc12	4	6	22	5	-3	7	13	0	13
Cn1cc(NC(=O)c2cnn3cccnc23)c(-c2cc(Cl)ccc2OC(F)F)n1	5	6	11	4	1	3	2	-2	14
